Where two headings read alike, the source gives them in different places.
How the values were obtained:
[1] = tested on: hapten affinity-purified D-mannitol-specific antibody; test: ELISA inhibition: specificity and cross-reactivity of the hapten affinity-purified antibody, D-mannitol-KLH coated wells; assay type: binding, rabbit; conditions: for Inhibition in ELISA (in words): comparison among inhibitors; for IC50: read-out: IC50 (concentration required for 50% inhibition in ELISA)
Method: FIG. 5 depicts specificity of the purified D-mannitol-specific antibody determined by ELISA inhibition. D-Mannitol-KLH conjugate (10 ng/well) was used for coating. The purified antibody (at 1:100 dilution) was preincubated with various inhibitors at different concentrations at 37° C. for 1 h before adding to the coated wells.
FIG. 6 depicts stereo specificity of the purified D-mannitol-specific antibody determined by ELISA inhibition. As L-mannitol is not available commercially, L-mannitol-BSA conjugate (prepared using L-mannose) was used as inhibitor and the inhibition was compared with that of D-mannitol-BSA conjugate.
To check for the formation of hapten-specific antibodies the antiserum was analyzed by non-competitive ELISA using the coated antigen format. The titer of the antiserum was determined by measuring the binding of serial dilutions of antiserum to coated mannitol-KLH conjugate. Flat bottom polystyrene microtiter wells were coated with mannitol-KLH conjugate at 1000, 100, 50, 10, and 1 ng per well in carbonate-bicarbonate buffer, pH 9.6 by incubating at 4° C. overnight. The wells were washed thrice between steps using PBS containing 0.05% Tween 20 (PBS-T). Blocking was done using 0.5% gelatin in PBS-T (blocking buffer) at 37° C. for 30 min. Antiserum diluted in blocking buffer (1:10, 1:100, 1:1000, 1:10000, 1:25000, 1:50000, 1:75000; 1:100000, 1:200000, 1:400000) was added (100 μL/well) and incubated at 37° C. for 2 h. Mouse anti-rabbit IgG-alkaline phoshatase secondary antibody (1:5000 dilution in blocking buffer, 100 μL/well) was added and incubated at 37° C. for 1 h. Color development was done using p-nitrophenyl phosphate (1 mg/mL, 100 μL/well) in diethanolamine buffer, pH 9.8, at 37° C. for 30 min. The reaction was stopped by adding 3 M NaOH (40 μL/well) and the absorbance at 405 nm was read in an ELISA reader.
The hapten affinity-purified D-mannitol-specific antibody was used for ELISA experiments to obtain the binding curves using D-mannitol-KLH conjugate for coating, and to study the specificity and cross-reactivity by ELISA inhibition experiments. Here, purified antibody was preincubated with various concentrations of inhibitors at 37° C. for 1 h before adding to coated microtiter wells. Other steps were as described under ‘Titration of antiserum’. Percent cross-reactivity for various inhibitors was calculated using the formula: […]

[2] = tested on: mannitol-specific mast cell-bound human IgE; test: Skin prick test (SPT) in an allergic subject sensitized to mannitol; assay type: in vivo; conditions: for Wheal diameter / Flare diameter: SPT, free compounds at 0.1%; for Wheal diameter: first figure of wheal/flare; for Flare diameter: second figure of wheal/flare
Source text: A D-mannitol-BSA and D-mannitol-KLH conjugate was used for skin prick test (SPT) in a mannitol-allergic subject, after obtaining Institutional Ethics Committee (IEC) clearance, and informed consent. D-Mannitol and its conjugates with BSA and KLH produced positive test whereas, D-mannose and control BSA and control KLH gave negative test (Table 2). L-Mannitol BSA conjugate was negative in SPT. All these samples were negative in SPT in 10 normal subjects.

[3] = (IC50 for D-mannitol ÷ IC50 for test compound) × 100
[4] = free sugars/sugar alcohols as competitor, D-mannitol-KLH 10 ng/well coating, antibody 1:100, preincubated 37° C. 1 h

IC50 [1, 4] [mM] | Molecule | Percent cross-reactivity [1, 3] [%] | Wheal diameter [2] [mm] | Flare diameter [2] [mm] | SPT result (positive/negative) [2] | Inhibition in ELISA (in words) [1] | Percent cross-reactivity ([1]; (IC50 for D-mannitol ÷ IC50 for test compound) × 100, listed as D-glucitol (sorbitol)) [%] | IC50 ([1]; BSA conjugates as inhibitor (stereospecificity, FIG. 6)) [mM] | Percent cross-reactivity ([1]; conjugate inhibitors, relative to D-mannitol-BSA conjugate) [%]
– | OCC(O)C(O)CO (stereo not drawn) [meso-Erythritol] | 4.9 | – | – | – | – | – | – | –
– | NCCCC[C@H](N)C(=O)O [L-lysine] | 2 | – | – | – | – | – | – | –
– | NCCc1c[nH]cn1 [Histamine base] | – | 6 | 30 | – | – | – | – | –
5.25 | OC[C@@H](O)[C@@H](O)[C@H](O)[C@H](O)CO [D-Mannitol] | 100.0 | 5 | 25 | positive | maximum inhibition | – | – | –
– | Control BSA: BSA incubated under the conjugation conditions, excluding D-mannose | – | 1 | 0 | negative | – | – | – | –
– | O=C[C@@H](O)[C@@H](O)[C@H](O)[C@H](O)CO [D-Mannose] | 4.9 | 1 | 0 | negative | – | – | – | –
60 | OC[C@@H](O)[C@@H](O)[C@H](O)[C@@H](O)CO [D-Glucitol] | 8.8 | – | – | – | higher compared to that by meso-erythritol and D-mannose | ~9 | – | –
– | N-(1-deoxy-D-mannitol-1-yl)n-carrier [D-Mannitol-BSA conjugate] | – | 4 | 30 | positive | – | – | 0.00064 | 100.00
– | N-(1-deoxy-D-mannitol-1-yl)n-carrier [D-Mannitol-KLH conjugate] | – | 4 | 25 | positive | – | – | – | –
